Laboratory results published in patent EP3403652A1, “PREVENTION AND TREATMENT OF FIBROBLAST GROWTH FACTOR 23 (FGF23)-ASSOCIATED DISORDERS INCLUDING CHRONIC KIDNEY DISEASE (CKD)” (Veterinärmedizinische Universität Wien, priority 2017, dated 2018).

How the values were obtained:
renal distal tubules [1] = test: Intracellular Ca2+ imaging by 2-photon microscopy in Fluo-4-loaded live kidney slices ex vivo; format: cell-based, mice; conditions: Klotho/VDR kidney slices; co-treatment with 200 ng/ml rFGF23, 2 h; ruthenium red 10 µM; closantel 30 ng/mL; PD173074 10 nM (iFGFR1) or 25 nM (FGFR1/3); iFGFR pan 120 nM
Procedure: (§1) The preparation of kidney slices for ex vivo experiments was performed as described in Andrukhova O et al. (EMBO J., 2014. 33, 229-246). Longitudinal 200-µm-thick live slices from freshly isolated kidneys of 3-month-old male WT and Klotho/VDR mice were prepared using a Leica VT1000 Vibratome (Leica Microsystems), and were used for ex vivo treatment with various substances as described below.
(§2) Longitudinal 200-µm-thick live slices of freshly isolated kidneys were prepared using a Leica VT1000 Vibratome (Leica Microsystems). For Na^+ imaging, the kidney slices of WT and Klotho/VDR mice were incubated for 60 min at 37°C with 2 µM of the sodium-sensitive dye SBFI (Molecular Probes), diluted in DMSO (Merck Millipore International) and 20% Pluronic (Merck Millipore International). For Ca^2+ imaging, the kidney slices were incubated for 30 min at 37°C with 2 µM of the calcium-sensitive dye Fluo-4 (Molecular Probes), diluted in DMSO and 20% Pluronic. Thereafter, the slices were washed two times for 20 min each in 0.1M PBS, and were subsequently incubated in vitro with vehicle (PBS), rFGF23 R176/179Q [(100 or 200 ng/ml) kindly provided by Amgen Inc., Thousand Oaks, CA, USA], PD173074 (Sigma-Aldrich) (10 nM for inhibiting FGFR1 and 25 nM for inhibiting FGFR1 and 3), pan FGFR inhibitor [(120 nM) FIIN1 hydrochloride, Tocris Bioscience, Bristol, UK)], WNK signalling inhibitor Closantel (30 ng/mL, generous gift of Dario R. Alessi) alone or combined at 37°C, 5% CO2 / 95% air humidified atmosphere for 2 h. […] For visualization of intracellular Na^+ and Ca^2+ content, SBFI or Fluo-4 were excited by a Ti:sapphire laser (Chameleon, Coherent Inc.) at 820 nm. Images (512 × 512 pixels) were acquired every 30 sec at a depth of 60 - 80 µm. Fluorescence images were analyzed using Image J software. The whole epithelial layer of the distal tubules was selected by manually drawing the region of interest (ROI) to quantify intracellular Na^+ and Ca^2+ levels. Fluorescence intensity was quantified in 4-9 ROIs per image, and the ratio between the fluorescence intensity and the ROI area was calculated for each tubule. This ratio was used for all subsequent calculations.
(§3) To gain more insight into the functional role of the rFGF23-induced increase in distal renal tubular ion channel expression and the FGF receptors involved, we performed intracellular Ca^2+ and Na^+ imaging by 2-photon microscopy in Fluo-4- or SFBI-loaded and subsequently rFGF23-treated (100 or 200 ng/ml for 2 h), 200-µm-thick renal slices prepared from WT and Klotho/VDR mice.
(§4) In this example it was assessed whether the Klotho-independent FGF23 signalling pathway is mediated through FGFR3 and/or 4, given that FGFR2 expression was low in distal renal tubules (Figure 12A). To dissect between the latter receptors, Klotho/VDR kidney slices were treated with rFGF23 alone or in combination with an FGFR1/FGFR3 inhibitor and the WNK signalling inhibitor closantel.

renal distal tubules [2] = test: Intracellular Na+ imaging by 2-photon microscopy in SBFI-loaded live kidney slices ex vivo; format: cell-based, mice; conditions: Klotho/VDR kidney slices; co-treatment with 200 ng/ml rFGF23, 2 h; closantel 30 ng/mL; BF 15 µM; PD173074 10 nM (iFGFR1) or 25 nM (FGFR1/3); iFGFR pan 120 nM
Procedure: as §1, §2, §3, §4

5/6 Nx (CKD) WT mice = test: 5/6 nephrectomy CKD model, closantel orally via the diet over 8 weeks; format: in vivo
Procedure: The 5/6 nephrectomy (5/6 Nx) was performed in two stages (Leelahavanichkul A et al., Kidney Int. 78, 2010. 1136-1153) under isoflurane anesthesia (Fig. 1A). Pain was managed by s.c. injections of buprenorphine, metamizol and meloxicam. Additionally, the animals were treated for 3 days postsurgery with the analgesic piritramid via the drinking water, starting 6 h postsurgery. At the first stage (wk -1), the left kidney was decapsulated to avoid ureter and adrenal damage, and the upper and lower poles were partially resected via a left flank incision. Bleeding was controlled by microfibrillar collagen hemostasis (Avitene, Davol, Cranston, RI). The upper and lower poles were weighed. One week later, the entire right kidney was removed via a right flank incision and weighed. Animals with insufficient kidney resection as determined by a ratio of < 0.55 for the removed left kidney weight to the removed right kidney weight were euthanized. In the Sham surgery control mice, a left flank incision was performed at step 1, both poles of kidney were identified, then the flank incision was closed; a subsequent right flank incision was performed at step 2; the right renal artery was identified, then the flank incision was closed. After each flank incision, muscles and skin were repositioned and sewed. Mortality was tracked throughout the study. Necropsy was not performed on animals that died early.
For this experiment, WT Sham and 5/6-Nx mice were fed powdered rescue diet throughout the study. Closantel (Abcam) was dissolved in 100% ethanol (vehicle), and mixed into the moistened diet. To achieve a loading dose of 5 mg/kg body weight, the drug was mixed into the food at an initial concentration of 30 mg/kg diet. […] All mice were killed 8 weeks postsurgery.
Central arterial pressure and cardiac hemodynamic parameters were assessed using a SPR-671NR pressure catheter (1.4 French; Millar Instruments). Mice were anesthetized with 1.5% isoflurane in oxygen. The catheter was inserted into the ascending aorta for measurement of central arterial pressure. Parameters of LV function (i.e., maximum rate of the pressure rise, contractility index, end-diastolic pressure, and isovolumetric relaxation time) were measured by placing the catheter into the left ventricle. All pressure recordings were performed at the same anesthesia level. Hemodynamic measurements were recorded over 5 min, and traces were analyzed using LabChartPro software and a blood pressure (BP) module. After pressure measurements, all animals were euthanized.
The blood volume was determined from plasma volume and hematocrit as described in Lee H B & Blaufox M D (J. Nucl. Med., 1985. 26, 72-76). Plasma volume was determined by Evans blue dye dilution (Barron W M et al., J. Clin. Invest, 1984. 73, 923-932). Briefly, 20 µl of a 0.4% (wt/vol) solution of Evans blue (Sigma) in sterile physiological saline was injected into a tail vein. Blood samples (10 µl) were collected at 10 min and 30 min after injection to measure disappearance kinetics. Tubes were centrifuged and the hematocrit was recorded. Evans blue concentration in the plasma was measured in duplicate as optical density using the 2-wavelength method.
Total kidney homogenates, kidney cortex homogenates or total cell membrane preparations were solubilized in Laemmli sample buffer, fractionated on SDS- PAGE (30 µg/well) and transferred to a nitrocellulose membrane (Thermo Scientific). […] After washing, membranes were incubated with horseradish peroxidase-conjugated secondary antibodies (Amersham Life Sciences). Specific signal was visualized by ECL kit (Amersham Life Sciences). The protein bands were quantified by Image Quant 5.0 software (Molecular Dynamics). Loading of the samples was normalized to Ponceau S stain. The expression levels were normalized to β-actin expression. […]

[3] = target: WNK-regulated kinase SPAK (Ste20-like proline/alanine-rich kinase) (Homo sapiens, UniProt Q9UEW8); conditions: literature (Kikuchi et al. 2014); cited from earlier work
[4] = in vivo, cited from earlier work
[5] = Western blotting, renal total homogenates, CKD mice, 8 weeks postsurgery
[6] = oral via diet once a week, 8 weeks postsurgery

For Cc1cc(C(C#N)c2ccc(Cl)cc2)c(Cl)cc1NC(=O)c1cc(I)cc(I)c1O (centres unmarked) [closantel, N-[5-chloro-4-[(4-chlorophenyl)-cyanomethyl]-2-methylphenyl]-2-hydroxy-3,5-diiodobenzamide], the “rFGF23-induced increase in intracellular Ca^2+ fluorescence (distal tubular Ca^2+ uptake)” value (renal distal tubules [1]) was “abrogated”, the “rFGF23-induced increase in intracellular Na^+ fluorescence (distal tubular Na^+ uptake)” value (renal distal tubules [2]) was “abrogated” and the “urinary excretion of Na^+” value (5/6 Nx (CKD) WT mice; CKD mice, 8 weeks postsurgery) was “increased”. The “disease progression in CKD mice” value (5/6 Nx (CKD) WT mice; Figure 13 legend, oral via diet once a week over 8 weeks) was “largely protects”, the “renal pNCC expression” value (5/6 Nx (CKD) WT mice; [5]) was “downregulation” and the “renal pNKCC expression” value (5/6 Nx (CKD) WT mice; [5]) was “downregulation”. The “renal pWNK1 expression” value (5/6 Nx (CKD) WT mice; [5]) was “downregulation”, the “CKD-induced increase in HW/BW ratio” value (5/6 Nx (CKD) WT mice; [6]) was “largely prevented” and the “CKD-induced increase in blood pressure” value (5/6 Nx (CKD) WT mice; [6]) was “largely prevented”. For the same compound, the “CKD-induced increase in blood volume” value (5/6 Nx (CKD) WT mice; [6]) was “largely prevented”, the “CKD-driven decline in GFR” value (5/6 Nx (CKD) WT mice; oral via diet once a week, loading dose 5 mg/kg body weight, 8 weeks postsurgery) was “largely prevented” and the “inhibition of the WNK-regulated kinase SPAK” value [3] was “potent inhibitors”. For the same compound, the bioavailability ([4]; po) was ~50% and the plasma half-life [4] was 14 days.
